Patent publication US8557848B2, “4,5-ring annulated indole derivatives for treating or preventing of HCV and related viral infections” (Merck Sharp & Dohme Corp., priority 2006, dated 2013)
Read-outs that look alike come from different tables or passages of the source.

Key:
[1] = target: T1, HCV NS5B polymerase (NS5BΔCT21, from HCV-Con 1 isolate, genotype 1b) (Hepatitis C virus genotype 1b, UniProt Q9WMX2); assay: HCV NS5B Polymerase Inhibition Assay; assay type: biochemical
T1 construct: A soluble C-terminal 21-amino acid truncated NS5B enzyme form; polyhistidine (C); made in house; host or cells: Escherichia coli
Text: A chemically synthesized 75-mer version, designated DCoH75, whose sequence matches the 3′-end of D-RNA, and DCoH75ddC, where the 3′-terminal cytidine of DCoH75 is replaced by dideoxycytidine, were used for assaying the NS5B enzyme activity as described in Ferrari et al., 12th International Symposium on HCV and Related Viruses, P-306 (2005). The sequence of the template RNA was: 5′-UGUGCCGGUCUUUCUGAACGGGAUAUAAACCUGGCCAGCUUCAUCGAACAAGUUGCCGUGUCUAUGACAUAGAUC-3′. A soluble C-terminal 21-amino acid truncated NS5B enzyme form (NS5BΔCT21, from HCV-Con 1 isolate, genotype 1b, Genbank accession number AJ238799) was produced and purified from Escherichia coli as C-terminal polyhistidine-tagged fusion protein as described in Ferrari et al., J. Virol. 73:1649-1654 (1999). A typical assay contained 20 mM Hepes pH 7.3, 10 mM MgCl2, 60 mM NaCl, 100 μg/ml BSA, 20 units/ml RNasin, 7.5 mM DTT, 0.1 μM ATP/GTP/UTP, 0.026 μM CTP, 0.25 mM GAU, 0.03 μM RNA template, 20 μCi/ml [^33P]-CTP, 2% DMSO, and 30 or 150 nM NS5B enzyme. Reactions were incubated at 22° C. for 2 hours, then stopped by adding 150 mM EDTA, washed in DE81 filter plate in 0.5M di-basic sodium phosphate buffer, pH 7.0, and counted using Packard TopCount after the addition of scintillation cocktail. Polynucleotide synthesis was monitored by the incorporation of radiolabeled CTP. The effect of the Compounds of Formula (I) on the polymerase activity was evaluated by adding various concentrations of a Compound of Formula (I), typically in 10 serial 2-fold dilutions, to the assay mixture. The starting concentrations ranged from 200 μM to 1 μM. An IC50 value for the inhibitor, defined as the compound concentration that provides 50% inhibition of polymerase activity, was determined by fitting the cpm data to the Hill equation Y=100/(1+10^((LogIC50-X)*HillSlope)), where X is the logarithm of compound concentration, and Y is the % inhibition. Ferrari et al., 12th International Symposium on HCV and Related Viruses, P-306 (2005) described in detail this assay procedure. It should be noted that such an assay as described is exemplary and not intended to limit the scope of the invention. The skilled practitioner can appreciate that modifications including but not limited to RNA template, primer, nucleotides, NS5B polymerase form, buffer composition, can be made to develop similar assays that yield the same result for the efficacy of the compounds and compositions described in the invention.
NS5B polymerase inhibition data for selected Compounds of Formula (I) is provided below in Table 2, wherein the compound numbers correspond to the compound numbering set forth in the above specification.

[2] = system: HCV replicon cells (replicon RNA level); assay: Cell-Based HCV Replicon Assay; settings: Hepatitis C virus, 72 h
Method: To measure cell-based anti-HCV activity of the a Compound of Formula (I), replicon cells were seeded at 5000 cells/well in 96-well collagen I-coated Nunc plates in the presence of the Compound of Formula (I). Various concentrations of a Compound of Formula (I), typically in 10 serial 2-fold dilutions, were added to the assay mixture, with the starting concentration ranging from 250 μM to 1 μM. The final concentration of DMSO was 0.5%, fetal bovine serum was 5%, in the assay media. Cells were harvested on day 3 by the addition of 1× cell lysis buffer (Ambion cat #8721). The replicon RNA level was measured using real time PCR (Taqman assay). The amplicon was located in 5B. The PCR primers were: 5B.2F, ATGGACAGGCGCCCTGA; 5B.2R, […]; the probe sequence was FAM-labeled CACGCCATGCGCTGCGG. GAPDH RNA was used as endogenous control and was amplified in the same reaction as NS5B (multiplex PCR) using primers and VIC-labeled probe recommended by the manufacturer (PE Applied Biosystem). The real-time RT-PCR reactions were run on ABI PRISM 7900HT Sequence Detection System using the following program: 48° C. for 30 min, 95° C. for 10 min, 40 cycles of 95° C. for 15 sec, 60° C. for 1 min. The ΔCT values (CT5B-CTGAPDH) were plotted against the concentration of test compound and fitted to the sigmoid dose-response model using XLfit4 (MDL). EC50 was defined as the concentration of inhibitor necessary to achieve ΔCT=1 over the projected baseline; EC90 the concentration necessary to achieve ΔCT=3.2 over the baseline. Alternatively, to quantitate the absolute amount of replicon RNA, a standard curve was established by including serially diluted T7 transcripts of replicon RNA in the Taqman assay. All Taqman reagents were from PE Applied Biosystems. Such an assay procedure was described in detail in e.g. Malcolm et al., Antimicrobial Agents and Chemotherapy 50: 1013-1020 (2006).
HCV Replicon assay data for selected Compounds of Formula (I) is provided below in Table 1, wherein the compound numbers correspond to the compound numbering set forth in the above specification.

[3] = replicon RNA level by real time PCR (Taqman), cells harvested on day 3, read-out: EC50
[4] = NS5B polymerase inhibition, [33P]-CTP incorporation, 22° C. for 2 hours, read-out: IC50

Structure (SMILES) | IC50 [1] | EC50 [2, 3] | IC50 [1, 4] | EC50 [2]
CCOC(=O)c1c(-c2ccccc2F)c2c3c(C)c(C)[nH]c3ccc2n1Cc1ccccc1 [Compound 51] | > 100 nM | > 1500 nM | – | –
CS(=O)(=O)NC(=O)c1c(-c2ccc[nH]c2=O)c2c3sccc3ccc2n1Cc1cc(F)ccc1F [Compound 52] | – | > 1500 nM | < 25 nM | –
CS(=O)(=O)NC(=O)c1c(-c2ccc[nH]c2=O)c2c3c(ccc2n1Cc1ccccc1F)OC(F)(F)O3 [Compound 56] | < 25 nM | > 1500 nM | – | –
CCS(=O)(=O)NC(=O)c1c(-c2ccc[nH]c2=O)c2c3occc3ccc2n1Cc1cc(F)ccc1F [Compound 57] | – | < 500 nM | < 25 nM | –
CS(=O)(=O)NC(=O)c1c(-c2ccc[nH]c2=O)c2c3c(ccc2n1Cc1cc(F)ccc1F)CCO3 [Compound 59] | < 25 nM | < 500 nM | – | –
Cc1ccc(Cn2c(C(=O)NS(C)(=O)=O)c(-c3ccc[nH]c3=O)c3c4occc4ccc32)c(C)c1 [Compound 60] | – | < 500 nM | < 25 nM | –
Cc1ccccc1Cn1c(C(=O)NS(C)(=O)=O)c(-c2ccc[nH]c2=O)c2c3occc3ccc21 [Compound 61] | – | < 500 nM | < 25 nM | –
O=C(NS(=O)(=O)C1CC1)c1c(-c2ccc[nH]c2=O)c2c3occc3ccc2n1Cc1cc(F)ccc1F [Compound 62] | – | < 500 nM | < 25 nM | –
CC(C)S(=O)(=O)NC(=O)c1c(-c2ccc[nH]c2=O)c2c3occc3ccc2n1Cc1cc(F)ccc1F [Compound 63] | – | < 500 nM | < 25 nM | –
CC(C)S(=O)(=O)NC(=O)c1c(-c2ccc[nH]c2=O)c2c3occc3ccc2n1Cc1ccccc1F [Compound 64] | – | < 500 nM | < 25 nM | –
O=C(NS(=O)(=O)C1CC1)c1c(-c2ccc[nH]c2=O)c2c3occc3ccc2n1Cc1ccccc1F [Compound 65] | – | < 500 nM | < 25 nM | –
Cc1cccc(Cn2c(C(=O)NS(C)(=O)=O)c(-c3ccc[nH]c3=O)c3c4occc4ccc32)c1F [Compound 66] | – | < 500 nM | < 25 nM | –
CS(=O)(=O)NC(=O)c1c(-c2ccc[nH]c2=O)c2c3occc3ccc2n1Cc1ccccc1Cl [Compound 67] | – | < 500 nM | < 25 nM | –
CCS(=O)(=O)NC(=O)c1c(-c2ccc[nH]c2=O)c2c3occc3ccc2n1Cc1ccccc1F [Compound 68] | – | < 500 nM | < 25 nM | –
CCc1coc2c1ccc1c2c(-c2ccc[nH]c2=O)c(C(=O)NS(C)(=O)=O)n1Cc1cc(F)ccc1F [Compound 69] | – | < 500 nM | > 100 nM | –
CCc1coc2c1ccc1c2c(-c2ccc[nH]c2=O)c(C(=O)NS(C)(=O)=O)n1Cc1ccccc1F [Compound 70] | – | > 1500 nM | > 100 nM | –
Cc1cc2ccc3c(c(-c4ccc[nH]c4=O)c(C(=O)O)n3Cc3ccccc3F)c2o1 [Compound 76] | – | > 1500 nM | 25 to 100 nM | –
Nc1cc(Cn2c(C(=O)O)c(-c3ccc[nH]c3=O)c3c4occc4c(F)cc32)ccn1 [Compound 77] | – | < 500 nM | < 25 nM | –
O=C(O)c1c(-c2ccc[nH]c2=O)c2c3occc3c(F)cc2n1Cc1cc[nH]c(=O)c1 [Compound 78] | – | < 500 nM | 25 to 100 nM | –
O=C(O)c1c(-c2ccc[nH]c2=O)c2c3occc3c(F)cc2n1Cc1ccccc1F [Compound 79] | – | < 500 nM | < 25 nM | –

Structure (SMILES) | IC50 [1] | EC50 [2, 3] | IC50 [1, 4] | EC50 [2]
Nc1n[nH]c2cc(F)c(Cn3c(C(=O)O)c(-c4ccc[nH]c4=O)c4c5occc5c(F)cc43)cc12 [Compound 80] | < 25 nM | < 500 nM | – | –
NCc1cccc(Cn2c(C(=O)O)c(-c3ccc[nH]c3=O)c3c4occc4c(F)cc32)c1 [Compound 81] | – | < 500 nM | < 25 nM | –
NCc1ccc(Cn2c(C(=O)O)c(-c3ccc[nH]c3=O)c3c4occc4c(F)cc32)cc1 [Compound 82] | – | < 500 nM | < 25 nM | –
Cc1c[nH]c(=O)cc1Cn1c(C(=O)O)c(-c2ccc[nH]c2=O)c2c3occc3c(F)cc21 [Compound 83] | – | < 500 nM | < 25 nM | –
Cc1cc2ccc3c(c(-c4ccc[nH]c4=O)c(C(=O)O)n3Cc3cc(F)ccc3F)c2o1 [Compound 85] | – | > 1500 nM | < 25 nM | –
O=C(O)c1c(-c2ccc[nH]c2=O)c2c3occc3c(F)cc2n1Cc1cc(=O)[nH]cc1F [Compound 87] | – | – | < 25 nM | < 500 nM
O=C(O)c1c(-c2cccc(O)c2F)c2c3occc3c(F)cc2n1Cc1ccccc1F [Compound 88] | – | 500 to 1500 nM | 25 to 100 nM | –
O=C(O)c1c(-c2ccc[nH]c2=O)c2c3occc3c(F)cc2n1Cc1cc(F)ccc1F [Compound 89] | – | < 500 nM | < 25 nM | –
O=C(O)c1c(-c2ccc[nH]c2=O)c2c3occc3c(F)cc2n1Cc1ccc2nc[nH]c2c1 [Compound 91] | – | < 500 nM | < 25 nM | –
NC(=O)c1cccc(Cn2c(C(=O)O)c(-c3ccc[nH]c3=O)c3c4occc4c(F)cc32)c1 [Compound 92] | – | < 500 nM | < 25 nM | –
NC(=O)c1ccc(Cn2c(C(=O)O)c(-c3ccc[nH]c3=O)c3c4occc4c(F)cc32)cc1 [Compound 93] | – | < 500 nM | < 25 nM | –
NC(=O)c1ccc(F)c(Cn2c(C(=O)O)c(-c3ccc[nH]c3=O)c3c4occc4ccc32)c1 [Compound 94] | – | < 500 nM | < 25 nM | –
NCc1ccc(Cn2c(C(=O)O)c(-c3ccc[nH]c3=O)c3c4occc4c(F)cc32)c(F)c1 [Compound 95] | – | < 500 nM | < 25 nM | –
Cn1cc(F)c(Cn2c(C(=O)O)c(-c3ccc[nH]c3=O)c3c4occc4c(F)cc32)cc1=O [Compound 96] | – | < 500 nM | < 25 nM | –
NC(=O)c1cc(Cn2c(C(=O)O)c(-c3ccc[nH]c3=O)c3c4occc4c(F)cc32)cs1 [Compound 97] | – | < 500 nM | < 25 nM | –
NC(=O)c1ncc(Cn2c(C(=O)O)c(-c3ccc[nH]c3=O)c3c4occc4c(F)cc32)s1 [Compound 98] | – | 500 to 1500 nM | 25 to 100 nM | –
NC(=O)c1cc(Cn2c(C(=O)O)c(-c3ccc[nH]c3=O)c3c4c(c(F)cc32)CCO4)cs1 [Compound 99] | – | 500 to 1500 nM | < 25 nM | –
Nc1n[nH]c2ccc(Cn3c(C(=O)O)c(-c4ccc[nH]c4=O)c4c5occc5c(F)cc43)cc12 [Compound 100] | – | < 500 nM | < 25 nM | –
Nc1nc2cc(Cn3c(C(=O)O)c(-c4ccc[nH]c4=O)c4c5occc5c(F)cc43)ccc2[nH]1 [Compound 101] | – | < 500 nM | < 25 nM | –
